Experimental findings from ChEMBL document CHEMBL5236615, “Discovery of Novel N-Heterocyclic-Fused Deoxypodophyllotoxin Analogues as Tubulin Polymerization Inhibitors Targeting the Colchicine-Binding Site for Cancer Treatment” (J Med Chem, 2022) are described below.

One assay has as its system MCF7. Kind of assay: cells. The following applies: Homo sapiens, MCF7, 72 h.
In another assay the test system is HT-29. The experiment in a line: Antiproliferative activity against human HT-29 cells measured after 72 hrs by MTT assay. The assay is classed as functional, cell-based. The following applies: HT-29, 72 h.
The next assay relates to K562. Kind of assay: cells. The following applies: Homo sapiens, K562, 72 h.
The next assay deals with HCT-116. Kind of assay: Antiproliferative activity against human HCT-116 cells measured after 72 hrs by MTT assay. In kind it is functional, cell-based. The following applies: HCT-116, 72 h.

Description for K562: Antiproliferative activity against human K562 cells measured after 72 hrs by MTT assay
Description for MCF7: Antiproliferative activity against human MCF7 cells measured after 72 hrs by MTT assay

As for `COc1cc([C@@H]2c3cc4c(cc3C[C@H]3COC(=O)N32)OCO4)ccn1`, the IC50 in the assay with MCF7, in the assay on HT-29, in the assay with K562 and in the assay with HCT-116 was over 5000 nM in each case.
In the case of `COc1cc([C@@H]2c3cc4c(cc3C[C@H]3COC(=O)N32)OCCO4)cc2c1OCO2`, the half-inhibitory concentration (IC50) stood at 35.4 nM with MCF7, 44.3 nM in the assay with HT-29, 29.6 nM in the assay on K562 and 50.9 nM in the assay with HCT-116.
Turning to `CCN1C(=O)[C@@H]2Cc3cc4c(cc3[C@@H](c3cc(OC)c(OC)c(OC)c3)N2C1=O)OCO4`, the IC50 in the assay with MCF7, with HT-29, with K562 and with HCT-116 was over 5000 nM throughout.
On to `COc1cc([C@@H]2c3cc4c(cc3C[C@H]3COC(=O)N32)OCCO4)cc(OC)c1Br`, for which the IC50 was determined as 37.5 nM with MCF7, 48.4 nM with HT-29, 39.5 nM in the assay on K562 and 103 nM in the assay on HCT-116.
For the compound `COc1cc([C@@H]2c3cc4c(cc3C[C@H]3C(=O)NCC(=O)N23)OCCO4)cc(OC)c1OC`, the IC50 was found to be 1560 nM in the assay on MCF7, 749 nM with HT-29, 785 nM in the assay on K562 and 3120 nM in the assay with HCT-116.
For `O=C1OC[C@@H]2Cc3cc4c(cc3[C@@H](c3ccncc3)N12)OCO4`, the concentration for half-maximal inhibition (IC50) with MCF7, in the assay with HT-29, in the assay with K562 and in the assay with HCT-116 was over 5000 nM in each case.
On to `COc1cc([C@@H]2c3cc4c(cc3C[C@H]3COC(=O)N32)OCCO4)cc(F)c1OC`, for which the IC50 in the assay on MCF7 was found to be 11.4 nM; in the assay on HT-29, 18.2 nM; in the assay on K562 it was 13.4 nM; in the assay with HCT-116 it was 10.1 nM.
In the case of `COc1cc([C@@H]2c3cc4c(cc3C[C@H]3COC(=O)N32)OCO4)cc2c1OCO2`, the IC50 in the assay on MCF7 turned out to be 149 nM; with HT-29, 212 nM; in the assay on K562 it was 72.3 nM; in the assay on HCT-116 it was 56.6 nM.
The like results for `O=C1OC[C@@H]2Cc3cc4c(cc3[C@@H](c3ccc(OC(F)F)c(OC(F)F)c3)N12)OCCO4` were, in that order, 265 nM, 74.8 nM, 316 nM and 918 nM.
`COc1cc([C@@H]2c3cc4c(cc3C[C@H]3C(=O)N(C)C(=S)N23)OCO4)cc(OC)c1OC`: the IC50 in the assay with MCF7, with HT-29, in the assay on K562 and in the assay with HCT-116 was over 5000 nM throughout.
As to `CCN1C(=O)[C@@H]2Cc3cc4c(cc3[C@@H](c3cc(OC)c(OC)c(OC)c3)N2C1=S)OCO4`, the IC50 in the assay with MCF7, with HT-29, in the assay with K562 and in the assay on HCT-116 was over 5000 nM each time.
In the case of `COc1cc([C@@H]2c3cc4c(cc3C[C@H]3COC(=O)N32)OCO4)cc(OC)c1O`, the IC50 in the assay on MCF7, with HT-29, in the assay with K562 and with HCT-116 was over 5000 nM in each case.
As to `COc1cc([C@@H]2c3cc4c(cc3C[C@H]3COC(=O)N32)OCCO4)ccc1F`, the IC50 came out at 376 nM with MCF7, 63.4 nM in the assay on HT-29, 154 nM with K562 and 273 nM with HCT-116.
The like results for `COc1cc([C@@H]2c3cc4c(cc3C[C@H]3COC(=O)N32)OCCCO4)cc2c1OCO2` were, in that order, 965 nM, 611 nM, 193 nM and 137 nM.
On to `O=C1NC(=O)N2[C@H](c3cc(Cl)nc(Cl)c3)c3cc4c(cc3C[C@@H]12)OCCO4`, for which the IC50 in the assay with MCF7 amounted to 400 nM; in the assay with HT-29, 357 nM; with K562, 424 nM; in the assay with HCT-116, 533 nM.
Regarding `COc1cc([C@@H]2c3cc4c(cc3C[C@H]3COC(=O)N32)OCCCO4)cc(OC)c1OC`, the IC50 in the assay with MCF7 was 58.8 nM; in the assay with HT-29 it was 81.9 nM; in the assay with K562, 107 nM; in the assay with HCT-116, 119 nM.
